In patent US20060156419A1, “Mouse model for autoimmune disorders” (THE WISTAR INSTITUTE of ANATOMY and BIOLOGY, priority 2002, published 2006):
Like-named read-outs stand apart in the source and are kept apart here.

Tests used:
[1] = system: TS1(SW) T cell receptor; test: Proliferation of TS1(SW) CD4+ T cells in response to graded doses of peptide; assay type: cell-based, mouse; details: for EC50: read-out: half maximal stimulation
[2] = system: TS1 T cell receptor; test: Proliferation of TS1 CD4+ T cells in response to graded doses of peptide; assay type: cell-based, mouse
[3] = system: TS1(SW) T cell receptor; details: Jordan et al, 2001; cited from earlier work

Sequence	affinity for the TS1(SW) TCR, fold lower than for S1(SW) peptide [1]	binding affinity of TS1(SW) T cell receptor (in words) [1]	fold higher concentrations of S1 peptide needed to reach half-maximal stimulation [1]	EC50 [1] [nM]	binding affinity of TS1 T cell receptor (in words) [2]	affinity of TS1(SW) TCR for S1 peptide, fold lower than that of the TS1 TCR [3]	EC50 ([1]; CD4+ T cells of TS1(SW) TCR transgenic mice, proliferation, FIG. 7) [nM]	binding affinity of TS1(SW) T cell receptor (in words) ([1]; FIG. 7B)	binding affinity of TS1 T cell receptor (in words) ([2]; FIG. 7A)
SFERFEIFPKE [S1 peptide]	about 100 fold	low affinity	around 30 fold	> 1000	high affinity	approximately 100 fold	–	–	–
SFEKFEIFPKT [S1(SW) peptide]	–	–	–	–	–	–	~50	high affinity	low affinity
